Assay results published in paper PMC7067850, “Identification of highly potent and selective inhibitor, TIPTP, of the p22phox-Rubicon axis as a therapeutic agent for rheumatoid arthritis” (Scientific Reports, 2020).

Test system: collagen antibody-induced arthritis
Test: Collagen antibody-induced arthritis (CAIA) mouse model, mice transduced with Ad-Rubicon
Assay type: in vivo
Description: Collagen antibody-induced arthritis mouse model was induced as previously described. Mice received a single‐dose intravenous injection of anti-type II collagen antibody cocktail (8 mg/mouse) (Arthrogen‐CIA Arthritogenic Monoclonal Antibody, no. 53010; Chondrex) on day −3 and an intraperitoneal injection of 100 μg of lipopolysaccharide on day 0 and were then monitored for the indicated times. Mice were sacrificed under anesthesia for the indicated times and knee joints were isolated. All animal-related procedures were reviewed and approved by the Institutional Animal Care and Use Committee of the Hanyang University (protocol 2017–0219). All animal experiments were performed in accordance with Korean Food and Drug Administration guidelines. […]
Figure 5 TIPTP protects Rubicon-expressed CAIA mice mortality. […] (a) The survival of CAIA mice was monitored for 15 days and mortality was measured for n = 10 mice per group. […] (b) Clinical arthritis score and swelling of paws, or (c) representative H&E staining of the ankle joints of each group were determined at 9 days of CAIA (left). […] Statistical significance was determined by two-way analysis of variance (ANOVA) with Tukey’s posttest; **P < 0.01 compared with Ad-Vector+Vehicle (a). […]
Arthritis mice were evaluated for disease progression three times a week as follows ^1,2. […]

**Q.** For `C[C@@H](Oc1cccc(-n2cc3c(n2)CCCC3)c1)C(=O)Nc1nnc(C(F)(F)F)s1` [TIPTP, (R)-2-(3-(4,5,6,7-tetrahydro-2H-indazol-2-yl)phenoxy)-N-(5-(trifluoromethyl)-1,3,4-thiadiazol-2-yl)propanamide], which survival rate (CAIA mice transduced with Ad-Rubicon, TIPTP every 2 days intraperitoneal, monitored 15 days (Fig. 5a)) is on record?
**A.** 90%

**Q.** What about the “arthritic clinical scores, paw swelling, and histopathological evaluation vs vehicle” value (Rubicon-expressing and vector CAIA mice (Fig. 5b,c)) of the same molecule?
**A.** markedly decreased
